Experimental findings from US4094908A, “Alpha-substituted benzhydrol derivatives” (Richter Gedeon Vegyeszeti Gyar Rt., priority 1973, dated 1978) are described below.

Each structure is given as a SMILES string.

For series [1], the system named is hexobarbital oxidase. Nature of the series: Enzyme inhibiting ability in vivo: change of hexobarbital oxidase activity (hexobarbital narcosis period). More on the design: species or system Female Wistar rats. The settings on record: in words, even 48 hours after administration. The method, then:
(§1) Female Wistar rats, each weighing 80 to 100 g., were treated orally with a single 0.3 mM/kg. dosage of the active agent. 24 and 48 hours after the administration of the active agent, respectively, the animals were narcotized with 40 mg./kg. i.v. dosage of hexobarbital sodium, and the time elapsed until complete wakening was measured (Noordhock, J.: Eur. J. Pharmacol. 3, 242, 1968). The data were recorded, and the mean values, the standard errors, as well as the percentage increase with respect to the controls were calculated for each group. […] The hexobarbital concentration of the plasma, measured on the instant of wakening, was the same for both the treated and the control animals, thus the increase of narcosis period was not due to a certain central nervous interaction (Jori, A., Bianchatti, A., Presentini, P. E.: Biochem. Pharmacol. 19, 2687, 1970).

The test system of series [2] is liver microsomal enzyme system. Nature of the series: Promotion or inhibition of the liver microsomal enzyme system. Format: in vivo. The settings on record: in words. An excerpt:
Tests per the methods described herein have shown compounds to be either effective in the promotion or inhibition of the liver microsomal enzyme system as follows: […]
For orientation: Liver microsomes are vesicles of endoplasmic reticulum, rich in cytochrome P450 enzymes.

Another series has as its system central nervous system. The format is in vivo, mice and rats. The settings on record: in words; in contrast with phenobarbital. From the text:
The central nervous activities of the compounds according to the invention were examined on mice and rats with the following methods: electroshock (Swinyard, E. A., Brown, W. C., Goodman, L. S.: J. Pharmacol. Exp. Ther. 106, 319, 1952), metrazol spasm (Everett, G. M., Richards, R. K.: J. Pharmacol. Exp. Ther. 81, 402: 1944), thiosemicarbezide spasm (Da Venzo, J. P. Greig, M. E., Cormin, M. A.: Amer. J. Physiol. 201, 833: 1961), strychnine spasm (Kerley, T. L., Richards, A. G., Begley, R. W., Abreu, B. B. Wesver, L. C.: J. Pharmacol. Exp. Ther. 132, 360: 1961), nicotine spasm (Stone, C. A., Mecklenburg, K. L., Torhans, M. L.: Arch. Int. Pharmacodyn. 117, 419: 1958), rotarod test (Kinnard, W. C., Carr, C. J.: J. Pharmacol. Expt. Ther. 121, 3, 54: 1957), physistigmine lethality preventing effect (Nose, T., Kojima, M.: Europ. J. Pharmacol. 10, 83: 1970), yohimbine potentiation effect (Quinton, R. M.: Brit. J. Pharmacol. 21, 51: 1963), and analgesic activity (Bianchi, G., Franceschini, J.: Brit. J. Pharm. Chemother. 9, 280: 1954). As reference substance, phenobarbital was used. […]

Series [3] has as its system hexobarbital oxidase. Put plainly: Enzyme-inducing potency: in vivo hexobarbital oxidase activity (duration of hexobarbital narcosis). More on the design: species or system Female Wistar rats. The settings on record: 24 hours before hexobarbital. How it is done: as §1, with “Female Wistar rats, each weighing 80 to 100 g., were treated orally with a single 0.3 mM/kg. dosage of the active agent.” left out
The enzyme-inducing potency of the new compounds was determined by several methods. One of these methods was the in vivo measurement of hexobarbital oxidase activity.
The decrease of narcosis period is due to the fact that the new compounds according to the invention accelerate the elimination of hexobarbital, a foreign substance, from the body. When administering the compound to be tested in a single dosage and measuring the duration of hexobarbital narcosis 24 hours after the administration, the following results are obtained: […]

Series [4] concerns bromosulfophthalein elimination. Put plainly: Bromosulfophthalein (BSP) concentration of the plasm after pre-treatment. The format is in vivo. The settings on record: 24 hours after pre-treatment; after i.v. bromsulfophthaleine. The method, then: The bromosulfophthalein (BSP) concentration of the plasm was determined 24 hours after pre-treatment with the compounds of the formula (I) and after the intravenous administration of bromsulfophthaleine, respectively (Varga, F., Fisher, E.: Acta Physiol. Hung. 36, 431, 1969).

In series [5] the test system is UDP-glucoronyltransferase. Nature of the series: UDP-glucuronyltransferase activity of liver tissues removed from pre-treated animals (bilirubin conjugation). The format is in vivo. The settings on record: liver tissues of pre-treated animals incubated with bilirubin. The method, then: In an in vivo test, liver tissues removed from animals pre-treated with compounds of the formula (I) were incubated in the presence of bilirubin, in order to determine the UDP-glucoronyltransferase activity of the liver tissues (Adlard, B. P. F., Lester, R. G., Lathe, G. H.: Biochem Pharmacol. 18, 59, 1969).

Series [6] in a line: Toxicity: perished animals/tested animals. The format is in vivo. From the text: Despite its disadvantageous properties, phenobarbital is widely used in the treatment of neonatal jaundice. In order to enable a better comparison, Table 8 indicates the respective dosages in which phenobarbital causes lethal respiration paralysis, while the compounds according to the invention are completely innocuous.

Series [7] deals with liver microsomal enzyme system. Nature of the series: Biological halving period of hexobarbital and hexobarbital concentration at wakening. Format: in vivo. The settings on record: pre-treated 24 hours prior to hexobarbital; female rats 150 g.
The next series has as its system meprobamate elimination. Nature of the series: Biological halving period of meprobamate after pre-treatment. The format is in vivo. As to conditions: 24 hours after pre-treatment. How it is done: The biological halving period of meprobamate was determined 24 hours after pre-treatment with the compounds of the formula (I) (Ludwig, B. J., Hoffman, A. J.; Arch. Biochem. 72, 234, 1957).

As to `C=CC(O)(c1ccccc1)c1ccc(OC)cc1OC` (stereo not drawn) [2,4-dimethoxy-α-vinylbenzhydrol, 2,4-dimethoxy-α-vinyl-benzhydrol], in the series on hexobarbital oxidase [1], the “Inhibition of the microsomal enzyme / xenobiotic elimination, duration” value was “long-lasting inhibition, the degree of which remains significant even 48 hours after administration”. The “Potency among the enzyme inducing or inhibiting compounds” value in [2] was “particularly potent”.
As for `C=CC(O)(c1ccccc1)c1ccccc1F` (stereo not drawn) [2-fluoro-α-vinyl-benzhydrol, 2-Fluoro-α-vinyl-benzhydrol], in the series with central nervous system, the Central nervous effects entry was “no central nervous effects”. Also, in series [2], the “Effect on the liver microsomal enzyme system (inducing or inhibiting)” value (“Effect … (inducing or inhibiting)” for short) was “particularly advantageous inducing effect”; the “Duration and strength of inducing effect compared with phenobarbital” value was “reaches that of phenobarbital”.
`C=CC(O)(c1ccccc1)c1ccc(Cl)c(Cl)c1` (stereo not drawn) [3,4-dichloro-α-vinylbenzhydrol, 3,4-dichloro-α-vinyl-benzhydrol]: the “Potency among the enzyme inducing or inhibiting compounds” value in series [2] is reported as “particularly potent”.
Take `CCC(O)(c1ccccc1)c1cccc(Cl)c1` (stereo not drawn) [E 9, 3-chloro-α-ethyl-benzhydrol]: the “Sleeping period ± standard error” value was determined as 21.7 ± 2.0 in the series with hexobarbital oxidase [3] (5 mg./kg. single dosage), 15.2 ± 1.4 in the series with hexobarbital oxidase [3] (10 mg./kg. single dosage), 13.6 ± 1.4 in the series on hexobarbital oxidase [3] (20 mg./kg. single dosage) and 12.4 ± 1.2 in the series with hexobarbital oxidase [3] (40 mg./kg. single dosage). For the same molecule, the “BSP concentration of the plasm” value in series [4] is on record as 7.6 μg./mg. plasm. For the same molecule, the Conjugated bilirubine in [5] worked out at 36.7 ± 3.2 µg/g/h. Besides, the Perished animals/tested animals in series [6] (40 mg./kg), in series [6] (80 mg./kg), in series [6] (160 mg./kg), in series [6] (320 mg./kg) and in series [6] (640 mg./kg) was 0/10 each time. The Central nervous effects result in the series on central nervous system is listed as “no central nervous effects”. For the same molecule, the “Effect … (inducing or inhibiting)” value in series [2] is “particularly advantageous inducing effect”. For the same molecule, the “Duration and strength of inducing effect compared with phenobarbital” value in series [2] was “reaches that of phenobarbital”.
For `CCC(O)(c1ccccc1)c1ccc(Cl)cc1Cl` (stereo not drawn) [E 11, 2,4-dichloro-α-ethyl-benzhydrol], the “Sleeping period ± standard error” value in the series with hexobarbital oxidase [3] (5 mg./kg. single dosage) is 22.0 ± 2.1; in the series on hexobarbital oxidase [3] (10 mg./kg. single dosage) it was 16.4 ± 1.6; in the series on hexobarbital oxidase [3] (20 mg./kg. single dosage), 15.0 ± 1.4; in the series on hexobarbital oxidase [3] (40 mg./kg. single dosage), 13.0 ± 1.2. Moreover, the “t1/2 (biological halving period of hexobarbital)” value in [7] is recorded as 26 min. The “t1/2 (biological halving period of meprobamate)” value in the series on meprobamate elimination is 2.8 hours. Also, the “BSP concentration of the plasm” value in [4] is recorded as 5.4 μg./mg. plasm. Further, the Conjugated bilirubine in series [5] was 35.7 ± 2.8 µg/g/h. Also, the Perished animals/tested animals in series [6] (40 mg./kg), in [6] (80 mg./kg), in series [6] (160 mg./kg), in series [6] (320 mg./kg) and in [6] (640 mg./kg) was 0/10 in each case. For the same molecule, the Central nervous effects result in the series with central nervous system is reported as “no central nervous effects”. In addition, the “Effect … (inducing or inhibiting)” value in series [2] is listed as “particularly advantageous inducing effect”. In addition, the “Duration and strength of inducing effect compared with phenobarbital” value in series [2] is “reaches that of phenobarbital”.
Turning to `CCC(O)(c1ccccc1)c1ccccc1OC` (stereo not drawn) [E 16, 2-methoxy-α-ethyl-benzhydrol], the “Inhibition of the microsomal enzyme / xenobiotic elimination, duration” value with hexobarbital oxidase [1] is “inhibit the elimination of xenobiotic agents and the inactivation thereof in the liver for a long time”; with hexobarbital oxidase [1] (listed as 2-methoxy-α-ethylbenzhydrol) it was “long-lasting inhibition, the degree of which remains significant even 48 hours after administration”. The “Potency among the enzyme inducing or inhibiting compounds” value in [2] is reported as “particularly potent”.
`CCN(CC)CCOc1ccc(C(O)(CC)c2ccccc2)cc1` (stereo not drawn) [E 17, 4-(β-diethylaminoethoxy)-α-ethyl-benzhydrol]: the “Inhibition of the microsomal enzyme / xenobiotic elimination, duration” value was “inhibit the elimination of xenobiotic agents and the inactivation thereof in the liver for a long time” in the series with hexobarbital oxidase [1]; “long-lasting inhibition, the degree of which remains significant even 48 hours after administration” in the series on hexobarbital oxidase [1] (listed as 4-(β-diethylaminoethoxy)-α-ethyl-benzhydrol). In series [2], the “Potency among the enzyme inducing or inhibiting compounds” value is “particularly potent”.
As to `CCC(O)(c1ccccc1)c1cc(C)ccc1C` (stereo not drawn) [E 20, 2,5-dimethyl-α-ethyl-benzhydrol], the “Sleeping period ± standard error” value with hexobarbital oxidase [3] (5 mg./kg. single dosage) is 23.8 ± 1.9; with hexobarbital oxidase [3] (10 mg./kg. single dosage) it was 18.76 ± 1.9; in the series on hexobarbital oxidase [3] (40 mg./kg. single dosage), 13.0 ± 1.2. Also, the Conjugated bilirubine in series [5] stood at 35.1 ± 2.6 µg/g/h. For the same molecule, in the series with central nervous system, the Central nervous effects result was “no central nervous effects”. The “Effect … (inducing or inhibiting)” value in series [2] is listed as “particularly advantageous inducing effect”. Also, the “Potency among the enzyme inducing or inhibiting compounds” value in series [2] is “particularly potent”. Also, the “Duration and strength of inducing effect compared with phenobarbital” value in [2] was “reaches that of phenobarbital”.
